According to publication PMC12892976, “Alkylation-based optimization of antifungal FPPS inhibitors yields a potent, broad-spectrum lipophilic zoledronate derivative” (mBio, 2025):
In brackets after ≈: the same amount, converted by molar mass.

How the values were obtained:
[1] = tested on: Candida dubliniensis; assay: checkerboard drug interaction (FICI, MICc); type: cell-based;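 note: simplified diagonal checkerboard screen pairing antifungals with FPPS inhibitors, FICI calculated under the Loewe additivity model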
Protocol: (§2) Drug interactions between antifungals and FPPS inhibitors were investigated using a simplified checkerboard diagonal screening method ([45]). […] FICIs were determined according to the Loewe additivity model ([17]).

[2] = tested on: Aspergillus niger; assay: checkerboard drug interaction (FICI, MICc); type: cell-based;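 note: simplified diagonal checkerboard screen pairing antifungals with FPPS inhibitors, FICI calculated under the Loewe additivity model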
Protocol: as §2

[3] = tested on: Aspergillus terreus; assay: checkerboard drug interaction (FICI, MICc); type: cell-based;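 note: simplified diagonal checkerboard screen pairing antifungals with FPPS inhibitors, FICI derived by the Loewe additivity model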
Protocol: as §2

[4] = tested on: Aspergillus felis; assay: checkerboard drug interaction (FICI, MICc); type: cell-based;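 note: simplified diagonal checkerboard screen pairing antifungals with FPPS inhibitors, FICI calculated under the Loewe additivity model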
Protocol: as §2

[5] = tested on: Nannizzia nana; assay: checkerboard drug interaction (FICI, MICc); type: cell-based;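 note: simplified diagonal checkerboard screen pairing antifungals with FPPS inhibitors, FICI calculated under the Loewe additivity model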
Protocol: as §2

[6] = tested on: Trichophyton soudanense; assay: checkerboard drug interaction (FICI, MICc); type: cell-based;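 note: simplified diagonal checkerboard screen pairing antifungals with FPPS inhibitors, FICI computed under the Loewe additivity model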
Protocol: as §2

[7] = tested on: Bacillus subtilis; assay: antibacterial MIC; type: cell-based
Excerpt: (§1) […]; Table S3). […]. […] […].

[8] = tested on: Enterobacter aerogenes; assay: antibacterial MIC; type: cell-based; conditions: Klebsiella aerogenes
Excerpt: as §1

[9] = tested on: Klebsiella pneumoniae; assay: antibacterial MIC; type: cell-based
Excerpt: as §1

[10] = tested on: Trichophyton tonsurans; assay: MIC broth microdilution (CLSI); conditions: Trichophyton tonsurans R-168
Protocol: (§3) Antifungal susceptibility was determined by broth microdilution according to the CLSI guidelines described in M27-Ed4 ([16]).

[11] = tested on: Trichophyton soudanense; assay: MIC broth microdilution (CLSI); conditions: Trichophyton soudanense R-167
Protocol: as §3

[12] = tested on: Aspergillus frankstonensis; assay: checkerboard drug interaction (FICI, MICc);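 note: simplified diagonal checkerboard screen pairing antifungals with FPPS inhibitors, FICI calculated using the Loewe additivity model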
Protocol: as §2

## O=P(O)(O)C(O)(Cn1ccnc1)P(=O)(O)O [ZOL, zoledronate]
[1]; ZOL with KET
  bisphosphonate MICc: 1
[1]; ZOL with VOR
  bisphosphonate MICc: 1
[2]; 5FC:ZOL
  FICI: 3
[2]; AMB:ZOL
  FICI: 0.98
[2]; CAS:ZOL
  FICI: 2
[2]; FLC:ZOL
  FICI: 2
[2]; ITR:ZOL
  FICI: 0.56
[2]; KET:ZOL
  FICI: 1
[2]; VOR:ZOL
  FICI: 1.02
[2]; ZOL with 5FC
  bisphosphonate MICc: 512
[2]; ZOL with AMB
  bisphosphonate MICc: 8
[2]; ZOL with CAS
  bisphosphonate MICc: 512
[2]; ZOL with FLC
  bisphosphonate MICc: 512
[2]; ZOL with ITR
  bisphosphonate MICc: 32
[2]; ZOL with KET
  bisphosphonate MICc: 256
[2]; ZOL with VOR
  bisphosphonate MICc: 8
[3]; 5FC:ZOL
  FICI: 1.5
[3]; AMB:ZOL
  FICI: 1
[3]; CAS:ZOL
  FICI: 1.5
[3]; FLC:ZOL
  FICI: 0.38
[3]; ITR:ZOL
  FICI: 0.51
[3]; KET:ZOL
  FICI: 0.25
[3]; VOR:ZOL
  FICI: 0.52
[3]; ZOL with 5FC
  bisphosphonate MICc: 128
[3]; ZOL with AMB
  bisphosphonate MICc: 64
[3]; ZOL with CAS
  bisphosphonate MICc: 64
[3]; ZOL with FLC
  bisphosphonate MICc: 32
[3]; ZOL with ITR
  bisphosphonate MICc: 32
[3]; ZOL with KET
  bisphosphonate MICc: 16
[3]; ZOL with VOR
  bisphosphonate MICc: 2
[4]; 5FC:ZOL
  FICI: 1.5
[4]; AMB:ZOL
  FICI: 2.5
[4]; CAS:ZOL
  FICI: 2.5
[4]; FLC:ZOL
  FICI: 1.03
[4]; ITR:ZOL
  FICI: 0.52
[4]; KET:ZOL
  FICI: 0.63
[4]; VOR:ZOL
  FICI: 0.38
[4]; ZOL with 5FC
  bisphosphonate MICc: 512
[4]; ZOL with AMB
  bisphosphonate MICc: 256
[4]; ZOL with CAS
  bisphosphonate MICc: 256
[4]; ZOL with FLC
  bisphosphonate MICc: 16
[4]; ZOL with ITR
  bisphosphonate MICc: 8
[4]; ZOL with KET
  bisphosphonate MICc: 64
[4]; ZOL with VOR
  bisphosphonate MICc: 64
[5]; 5FC:ZOL
  FICI: ≥4
[5]; AMB:ZOL
  FICI: 1
[5]; CAS:ZOL
  FICI: 0.75
[5]; FLC:ZOL
  FICI: 0.5
[5]; ITR:ZOL
  FICI: 0.65
[5]; KET:ZOL
  FICI: 0.51
[5]; VOR:ZOL
  FICI: 1.1
[5]; ZOL with 5FC
  bisphosphonate MICc: 256
[5]; ZOL with AMB
  bisphosphonate MICc: 64
[5]; ZOL with CAS
  bisphosphonate MICc: 64
[5]; ZOL with FLC
  bisphosphonate MICc: 32
[5]; ZOL with ITR
  bisphosphonate MICc: 16
[5]; ZOL with KET
  bisphosphonate MICc: 32
[5]; ZOL with VOR
  bisphosphonate MICc: 8
[6]; 5FC:ZOL
  FICI: 3
[6]; AMB:ZOL
  FICI: 3
[6]; CAS:ZOL
  FICI: 3
[6]; FLC:ZOL
  FICI: 0.75
[6]; ITR:ZOL
  FICI: 0.75
[6]; KET:ZOL
  FICI: 0.38
[6]; VOR:ZOL
  FICI: 0.49
[6]; ZOL with 5FC
  bisphosphonate MICc: 128
[6]; ZOL with AMB
  bisphosphonate MICc: 128
[6]; ZOL with CAS
  bisphosphonate MICc: 64
[6]; ZOL with FLC
  bisphosphonate MICc: 16
[6]; ZOL with ITR
  bisphosphonate MICc: 16
[6]; ZOL with KET
  bisphosphonate MICc: 8
[6]; ZOL with VOR
  bisphosphonate MICc: 16
[7]
  MIC: 256 µg/mL (≈ 941 µM)
[8]
  MIC: > 256 µg/mL
[9]
  MIC: 256 µg/mL (≈ 941 µM)
[10]
  MIC / MEC: 128 µg/mL (≈ 470 µM)
[11]
  MIC / MEC: 64 µg/mL (≈ 235 µM)
[12]; 5FC:ZOL
  FICI: ≥4
[12]; AMB:ZOL
  FICI: 2
[12]; CAS:ZOL
  FICI: ≥4
[12]; FLC:ZOL
  FICI: 0.56
[12]; ITR:ZOL
  FICI: 1.25
[12]; KET:ZOL
  FICI: 1
[12]; VOR:ZOL
  FICI: 1.13
[12]; ZOL with 5FC
  bisphosphonate MICc: 256
[12]; ZOL with AMB
  bisphosphonate MICc: 128
[12]; ZOL with CAS
  bisphosphonate MICc: 256
[12]; ZOL with FLC
  bisphosphonate MICc: 8
[12]; ZOL with ITR
  bisphosphonate MICc: 32
[12]; ZOL with KET
  bisphosphonate MICc: 64
[12]; ZOL with VOR
  bisphosphonate MICc: 16
